Patent US20180074053A1 (priority 2016, published 2018)
Read-outs that look alike come from different tables or passages of the source. Non-standard residues stand in square brackets, D forms with d. No end group written: not given here.

What was measured:
[1] = system: C57/BL/6J mice and diabetic mouse models; details: previous studies (Zhang 2013; U.S. Pat. No. 8,664,177); cited from earlier work
MRGX1 = MRGX1 (Homo sapiens, UniProt Q96LB2); experiment: cell-based
Procedure: (§1) The platform uses ChemiScreen GPCR stable cell lines that are used for real-time calcium flux assays to rapidly, screen a spectrum of GPCRs. […] Percentage activation values were determined upon initial addition of compound(s). Percentage activation and inhibition values were determined for each GPCR relative to the reference compounds.
(§2) Assays were performed according to the manufacturer's instructions. […] The assay plate was read by the FLIPR TETRA® (Molecular Devices, Sunnyvale, Calif.). All assay plate data were subjected to appropriate baseline corrections and the maximum fluorescence values were processed to calculate percentage activation (relative to ECmax reference agonist and vehicle control values).

MC4 = MC4 (Homo sapiens, UniProt P32245); experiment: cell-based
Procedure: as §1, §2

NMUR2 = NMUR2 (Homo sapiens, UniProt Q9GZQ4); experiment: cell-based
Procedure: as §1, §2

NK1 = NK1 (Homo sapiens, UniProt P25103); experiment: cell-based
Procedure: as §1, §2

MRGX2 = MRGX2 (Homo sapiens, UniProt Q96LB1); experiment: cell-based
Procedure: as §1, §2

MC5 = MC5 (Homo sapiens, UniProt P33032); experiment: cell-based
Procedure: as §1, §2

MCHR1 = MCHR1 (Homo sapiens, UniProt Q99705); experiment: cell-based
Procedure: as §1, §2

MRGD = MRGD (Homo sapiens, UniProt Q8TDS7); experiment: cell-based
Procedure: as §1, §2

MCHR2 = MCHR2 (Homo sapiens, UniProt Q969V1); experiment: cell-based
Procedure: as §1, §2

NMUR1 = NMUR1 (Homo sapiens, UniProt Q9HB89); experiment: cell-based
Procedure: as §1, §2

NPBW1 [2] = target: NPBW1 (Homo sapiens, UniProt P48145); experiment: cell-based
Procedure: as §1, §2

Motilin = Motilin (Homo sapiens, UniProt O43193); experiment: cell-based
Procedure: as §1, §2

MC2 = MC2 (Homo sapiens, UniProt Q01718); experiment: cell-based
Procedure: as §1, §2

GPCR109a = GPCR109a (Homo sapiens, UniProt Q8TDS4); experiment: cell-based
Procedure: as §1, §2

NOP = NOP (Homo sapiens, UniProt P41146); experiment: cell-based
Procedure: as §1, §2

NPBW1 [3] = target: T1, NPBW1 (UniProt P48145 1-328); experiment: cell-based or functional assay
T1 sequence (looked up): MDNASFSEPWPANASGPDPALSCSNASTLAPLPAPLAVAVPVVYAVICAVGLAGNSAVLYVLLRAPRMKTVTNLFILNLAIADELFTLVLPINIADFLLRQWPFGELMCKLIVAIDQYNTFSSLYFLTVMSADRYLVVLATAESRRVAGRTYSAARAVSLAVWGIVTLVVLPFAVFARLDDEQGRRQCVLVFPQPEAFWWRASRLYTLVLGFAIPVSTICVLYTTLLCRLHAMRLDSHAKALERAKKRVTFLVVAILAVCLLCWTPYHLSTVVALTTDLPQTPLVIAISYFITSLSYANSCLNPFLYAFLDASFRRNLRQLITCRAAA

[4] = read-out: percent activation compared to standards, DT-110 @ 1.25 mM, Avg.
[5] = read-out: percent activation compared to standards, DT-110 @ 1.25 mM, n1
[6] = read-out: percent activation compared to standards, DT-110 @ 1.25 mM, n2
[7] = read-out: percent activation compared to standards, DT-110 @ 12.5 mM, Avg.
[8] = read-out: percent activation compared to standards, DT-110 @ 12.5 mM, n1
[9] = read-out: percent activation compared to standards, DT-110 @ 12.5 mM, n2

Chain of NK1 (P25103 whole entry): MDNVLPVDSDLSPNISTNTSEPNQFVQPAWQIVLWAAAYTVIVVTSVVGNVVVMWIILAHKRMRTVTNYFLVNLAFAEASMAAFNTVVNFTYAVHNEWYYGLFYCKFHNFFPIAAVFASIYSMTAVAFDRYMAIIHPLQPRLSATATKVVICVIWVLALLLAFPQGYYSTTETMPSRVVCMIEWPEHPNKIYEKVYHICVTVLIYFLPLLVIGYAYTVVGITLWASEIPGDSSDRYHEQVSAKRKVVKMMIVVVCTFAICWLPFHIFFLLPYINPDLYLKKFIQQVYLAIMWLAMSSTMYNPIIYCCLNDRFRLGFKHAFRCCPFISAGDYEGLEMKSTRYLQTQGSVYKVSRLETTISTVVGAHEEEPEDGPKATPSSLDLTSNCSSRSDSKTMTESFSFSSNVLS
Chain of NMUR1 (Q9HB89 whole entry): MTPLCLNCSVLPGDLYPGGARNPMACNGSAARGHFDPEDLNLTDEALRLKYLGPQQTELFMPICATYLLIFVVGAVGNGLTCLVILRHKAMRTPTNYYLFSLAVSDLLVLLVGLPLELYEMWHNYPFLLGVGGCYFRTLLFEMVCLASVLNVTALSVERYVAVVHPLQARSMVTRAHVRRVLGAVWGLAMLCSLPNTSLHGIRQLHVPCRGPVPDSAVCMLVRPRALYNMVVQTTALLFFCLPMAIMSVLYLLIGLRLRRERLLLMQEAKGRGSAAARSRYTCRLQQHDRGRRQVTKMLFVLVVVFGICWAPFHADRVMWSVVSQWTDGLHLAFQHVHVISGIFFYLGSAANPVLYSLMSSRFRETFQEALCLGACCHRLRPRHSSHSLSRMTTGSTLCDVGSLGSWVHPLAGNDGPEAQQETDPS
Chain of MRGX2 (Q96LB1 whole entry): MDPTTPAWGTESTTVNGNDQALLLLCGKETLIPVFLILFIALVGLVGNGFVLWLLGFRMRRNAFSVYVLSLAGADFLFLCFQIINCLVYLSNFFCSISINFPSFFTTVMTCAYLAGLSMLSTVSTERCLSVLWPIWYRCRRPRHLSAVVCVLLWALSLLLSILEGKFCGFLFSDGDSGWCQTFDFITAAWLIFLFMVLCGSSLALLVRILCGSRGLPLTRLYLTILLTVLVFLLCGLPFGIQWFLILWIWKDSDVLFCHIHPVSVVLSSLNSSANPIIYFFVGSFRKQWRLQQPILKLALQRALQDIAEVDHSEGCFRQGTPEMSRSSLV
Chain of MCHR1 (Q99705 whole entry): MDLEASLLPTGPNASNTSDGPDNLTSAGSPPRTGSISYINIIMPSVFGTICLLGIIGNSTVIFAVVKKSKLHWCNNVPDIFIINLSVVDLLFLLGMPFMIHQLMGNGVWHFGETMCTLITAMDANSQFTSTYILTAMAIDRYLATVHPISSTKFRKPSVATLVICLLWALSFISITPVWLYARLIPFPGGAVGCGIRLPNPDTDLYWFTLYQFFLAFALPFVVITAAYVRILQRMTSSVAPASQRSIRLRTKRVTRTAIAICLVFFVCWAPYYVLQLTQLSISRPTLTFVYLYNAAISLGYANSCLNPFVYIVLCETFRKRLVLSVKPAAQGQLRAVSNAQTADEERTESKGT
Chain of MRGX1 (Q96LB2 whole entry): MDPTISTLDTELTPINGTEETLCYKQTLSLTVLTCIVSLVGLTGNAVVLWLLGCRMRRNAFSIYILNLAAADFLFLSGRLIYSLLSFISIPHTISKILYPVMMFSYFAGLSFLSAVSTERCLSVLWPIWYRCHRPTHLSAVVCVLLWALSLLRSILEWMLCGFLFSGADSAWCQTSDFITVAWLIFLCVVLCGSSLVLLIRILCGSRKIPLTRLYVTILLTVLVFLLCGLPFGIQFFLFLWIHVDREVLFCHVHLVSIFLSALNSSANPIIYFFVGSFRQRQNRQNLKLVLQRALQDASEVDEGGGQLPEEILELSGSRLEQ
Chain of NMUR2 (Q9GZQ4 whole entry): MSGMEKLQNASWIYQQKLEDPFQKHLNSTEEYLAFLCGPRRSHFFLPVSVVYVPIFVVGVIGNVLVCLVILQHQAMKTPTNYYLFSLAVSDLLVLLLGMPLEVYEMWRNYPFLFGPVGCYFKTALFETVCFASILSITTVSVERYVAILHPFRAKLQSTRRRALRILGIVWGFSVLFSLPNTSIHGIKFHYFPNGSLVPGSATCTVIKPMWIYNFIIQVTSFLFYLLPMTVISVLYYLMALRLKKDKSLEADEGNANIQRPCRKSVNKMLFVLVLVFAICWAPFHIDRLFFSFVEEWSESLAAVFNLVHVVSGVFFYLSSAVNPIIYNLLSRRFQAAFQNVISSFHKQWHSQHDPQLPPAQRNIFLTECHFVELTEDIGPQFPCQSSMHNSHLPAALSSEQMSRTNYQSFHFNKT
Chain of MC5 (P33032 whole entry): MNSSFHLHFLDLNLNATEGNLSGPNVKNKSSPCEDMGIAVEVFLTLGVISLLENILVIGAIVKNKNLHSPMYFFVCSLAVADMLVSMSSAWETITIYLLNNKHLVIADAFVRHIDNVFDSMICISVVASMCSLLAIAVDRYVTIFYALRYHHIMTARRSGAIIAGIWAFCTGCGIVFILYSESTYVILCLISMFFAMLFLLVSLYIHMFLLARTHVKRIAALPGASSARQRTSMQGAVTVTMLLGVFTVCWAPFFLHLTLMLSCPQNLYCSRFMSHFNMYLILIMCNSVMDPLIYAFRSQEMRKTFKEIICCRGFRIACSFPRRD
Chain of NOP (P41146 whole entry): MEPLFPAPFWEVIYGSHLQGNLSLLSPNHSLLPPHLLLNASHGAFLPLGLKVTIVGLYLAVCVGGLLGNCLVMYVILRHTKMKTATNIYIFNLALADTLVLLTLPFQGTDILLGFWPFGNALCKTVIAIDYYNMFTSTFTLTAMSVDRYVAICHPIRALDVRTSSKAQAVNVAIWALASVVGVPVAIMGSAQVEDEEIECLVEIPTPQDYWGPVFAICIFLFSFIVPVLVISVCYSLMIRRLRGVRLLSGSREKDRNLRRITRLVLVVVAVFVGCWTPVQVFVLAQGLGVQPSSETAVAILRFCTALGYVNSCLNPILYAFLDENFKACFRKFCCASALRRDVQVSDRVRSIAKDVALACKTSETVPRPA
Chain of MC2 (Q01718 whole entry): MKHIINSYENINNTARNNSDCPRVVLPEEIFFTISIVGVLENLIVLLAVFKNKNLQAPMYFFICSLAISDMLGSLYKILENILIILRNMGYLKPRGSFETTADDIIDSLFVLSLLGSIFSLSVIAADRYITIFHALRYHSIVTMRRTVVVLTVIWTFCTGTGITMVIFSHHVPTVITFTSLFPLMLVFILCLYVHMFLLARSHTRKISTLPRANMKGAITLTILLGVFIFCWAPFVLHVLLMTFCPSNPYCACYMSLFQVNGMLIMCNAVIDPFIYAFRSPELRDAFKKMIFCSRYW
Chain of MC2 (Q8TCY5 whole entry partner): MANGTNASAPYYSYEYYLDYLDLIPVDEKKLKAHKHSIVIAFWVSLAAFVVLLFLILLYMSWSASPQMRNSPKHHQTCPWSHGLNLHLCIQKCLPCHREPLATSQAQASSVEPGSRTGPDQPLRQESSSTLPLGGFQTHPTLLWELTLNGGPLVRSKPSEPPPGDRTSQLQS
Chain of GPCR109a (Q8TDS4 whole entry): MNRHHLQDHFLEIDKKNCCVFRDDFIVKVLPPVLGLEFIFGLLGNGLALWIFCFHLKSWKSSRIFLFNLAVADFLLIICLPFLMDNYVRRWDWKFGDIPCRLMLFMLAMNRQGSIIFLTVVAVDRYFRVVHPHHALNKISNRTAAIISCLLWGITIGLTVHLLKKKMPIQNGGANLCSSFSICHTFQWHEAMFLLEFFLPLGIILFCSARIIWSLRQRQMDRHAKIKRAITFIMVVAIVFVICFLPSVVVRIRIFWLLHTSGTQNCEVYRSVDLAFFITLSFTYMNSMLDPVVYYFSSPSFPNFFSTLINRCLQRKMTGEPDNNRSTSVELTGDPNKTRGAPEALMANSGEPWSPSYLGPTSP
Chain of MC4 (P32245 whole entry): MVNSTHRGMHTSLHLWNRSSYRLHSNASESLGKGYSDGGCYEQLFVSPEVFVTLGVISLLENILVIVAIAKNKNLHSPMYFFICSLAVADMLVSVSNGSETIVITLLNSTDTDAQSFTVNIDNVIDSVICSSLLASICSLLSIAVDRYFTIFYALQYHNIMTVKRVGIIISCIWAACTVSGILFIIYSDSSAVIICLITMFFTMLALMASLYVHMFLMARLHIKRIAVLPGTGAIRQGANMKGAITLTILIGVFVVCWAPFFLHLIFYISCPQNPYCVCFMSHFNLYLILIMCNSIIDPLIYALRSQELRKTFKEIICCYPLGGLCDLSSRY
Chain of Motilin (O43193 whole entry): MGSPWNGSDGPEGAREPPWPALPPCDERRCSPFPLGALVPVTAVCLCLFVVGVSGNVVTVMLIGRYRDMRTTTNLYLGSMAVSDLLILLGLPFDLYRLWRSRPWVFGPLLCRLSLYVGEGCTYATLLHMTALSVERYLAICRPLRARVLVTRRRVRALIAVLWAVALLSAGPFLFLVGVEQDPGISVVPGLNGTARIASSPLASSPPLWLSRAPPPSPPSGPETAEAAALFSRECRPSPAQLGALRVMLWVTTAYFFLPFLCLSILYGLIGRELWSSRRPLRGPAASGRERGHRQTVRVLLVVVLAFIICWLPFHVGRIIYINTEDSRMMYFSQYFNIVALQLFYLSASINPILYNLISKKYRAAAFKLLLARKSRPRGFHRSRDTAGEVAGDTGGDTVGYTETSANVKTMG
Chain of MRGD (Q8TDS7 whole entry): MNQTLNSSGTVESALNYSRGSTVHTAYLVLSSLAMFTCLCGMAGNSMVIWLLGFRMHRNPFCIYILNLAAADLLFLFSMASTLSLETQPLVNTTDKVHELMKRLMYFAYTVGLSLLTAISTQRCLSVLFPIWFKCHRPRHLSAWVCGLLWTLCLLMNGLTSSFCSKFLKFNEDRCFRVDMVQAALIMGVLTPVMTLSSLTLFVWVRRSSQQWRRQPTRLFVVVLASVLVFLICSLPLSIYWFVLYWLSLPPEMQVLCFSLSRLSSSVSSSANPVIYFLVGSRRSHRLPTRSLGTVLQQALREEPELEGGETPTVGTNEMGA

Molecule: CC(C)C[C@@H](NC(=O)CNC(=O)CN)C(=O)O
- blood glucose [1]: lower blood glucose
- activation at 1250 µM (MRGX1; [4]): -1.9%
- activation at 1250 µM (MRGX1; [5]): -1.3%
- activation at 1250 µM (MRGX1; [6]): -2.5%
- activation at 12500 µM (MRGX1; [7]): -6.6%
- activation at 12500 µM (MRGX1; [8]): -6.7%
- activation at 12500 µM (MRGX1; [9]): -6.6%
- activation at 1250 µM (MC4; [4]): -0.5%
- activation at 1250 µM (MC4; [5]): 3%
- activation at 1250 µM (MC4; [6]): -4%
- activation at 12500 µM (MC4; [7]): 3.4%
- activation at 12500 µM (MC4; [8]): -0.2%
- activation at 12500 µM (MC4; [9]): 7%
- activation at 1250 µM (NMUR2; [4]): 2.4%
- activation at 1250 µM (NMUR2; [5]): 0.9%
- activation at 1250 µM (NMUR2; [6]): 3.9%
- activation at 12500 µM (NMUR2; [7]): -0.9%
- activation at 12500 µM (NMUR2; [8]): 0.4%
- activation at 12500 µM (NMUR2; [9]): -2.2%
- activation at 1250 µM (NK1; [4]): -0.9%
- activation at 1250 µM (NK1; [5]): -1%
- activation at 1250 µM (NK1; [6]): -0.9%
- activation at 12500 µM (NK1; [7]): -1.1%
- activation at 12500 µM (NK1; [8]): -1%
- activation at 12500 µM (NK1; [9]): -1.1%
- activation at 1250 µM (MRGX2; [4]): -0.2%
- activation at 1250 µM (MRGX2; [5]): 0%
- activation at 1250 µM (MRGX2; [6]): -0.4%
- activation at 12500 µM (MRGX2; [7]): 0%
- activation at 12500 µM (MRGX2; [8]): 0.4%
- activation at 12500 µM (MRGX2; [9]): -0.4%
- activation at 1250 µM (MC5; [4]): 0%
- activation at 1250 µM (MC5; [5]): 0.7%
- activation at 1250 µM (MC5; [6]): -0.8%
- activation at 12500 µM (MC5; [7]): -0.3%
- activation at 12500 µM (MC5; [8]): -0.6%
- activation at 12500 µM (MC5; [9]): 0%
- activation at 1250 µM (MCHR1; [4]): 0.4%
- activation at 1250 µM (MCHR1; [5]): 0.2%
- activation at 1250 µM (MCHR1; [6]): 0.7%
- activation at 12500 µM (MCHR1; [7]): -0.1%
- activation at 12500 µM (MCHR1; [8]): -0.5%
- activation at 12500 µM (MCHR1; [9]): 0.3%
- activation at 1250 µM (MRGD; [4]): 69.2%
- activation at 1250 µM (MRGD; [5]): 76.5%
- activation at 1250 µM (MRGD; [6]): 62%
- activation at 12500 µM (MRGD; [7]): 64.5%
- activation at 12500 µM (MRGD; [8]): 60.7%
- activation at 12500 µM (MRGD; [9]): 68.3%
- activation at 1250 µM (MCHR2; [4]): 0.5%
- activation at 1250 µM (MCHR2; [5]): 0.1%
- activation at 1250 µM (MCHR2; [6]): 0.8%
- activation at 12500 µM (MCHR2; [7]): -0.9%
- activation at 12500 µM (MCHR2; [8]): -0.8%
- activation at 12500 µM (MCHR2; [9]): -0.9%
- activation at 1250 µM (NMUR1; [4]): 0.5%
- activation at 1250 µM (NMUR1; [5]): 1.3%
- activation at 1250 µM (NMUR1; [6]): -0.4%
- activation at 12500 µM (NMUR1; [7]): -0.1%
- activation at 12500 µM (NMUR1; [8]): -0.7%
- activation at 12500 µM (NMUR1; [9]): 0.5%
- activation at 1250 µM (NPBW1 [2]; [4]): 0.2%
- activation at 1250 µM (NPBW1 [2]; [5]): 1.6%
- activation at 1250 µM (NPBW1 [2]; [6]): -1.1%
- activation at 12500 µM (NPBW1 [2]; [7]): -0.9%
- activation at 12500 µM (NPBW1 [2]; [8]): -0.8%
- activation at 12500 µM (NPBW1 [2]; [9]): -0.9%
- activation at 1250 µM (Motilin; [4]): -0.3%
- activation at 1250 µM (Motilin; [5]): -0.3%
- activation at 1250 µM (Motilin; [6]): -0.3%
- activation at 12500 µM (Motilin; [7]): -0.4%
- activation at 12500 µM (Motilin; [8]): -0.3%
- activation at 12500 µM (Motilin; [9]): -0.5%
- activation at 1250 µM (MC2; [4]): -0.7%
- activation at 1250 µM (MC2; [5]): 0.6%
- activation at 1250 µM (MC2; [6]): -2%
- activation at 12500 µM (MC2; [7]): -1%
- activation at 12500 µM (MC2; [8]): -1%
- activation at 12500 µM (MC2; [9]): -0.9%
- activation at 1250 µM (GPCR109a; [4]): -8.1%
- activation at 1250 µM (GPCR109a; [5]): -8.1%
- activation at 1250 µM (GPCR109a; [6]): -8%
- activation at 12500 µM (GPCR109a; [7]): 54.3%
- activation at 12500 µM (GPCR109a; [8]): 52.9%
- activation at 12500 µM (GPCR109a; [9]): 55.7%
- activation at 1250 µM (NOP; [4]): -0.1%
- activation at 1250 µM (NOP; [5]): -7.8%
- activation at 1250 µM (NOP; [6]): 7.6%
- activation at 12500 µM (NOP; [7]): -2.3%
- activation at 12500 µM (NOP; [8]): 3.4%
- activation at 12500 µM (NOP; [9]): -8%

B1: DT-110, tripeptide glycine-glycine-D-leucine (GGdL) (peptide)
peptide: Gly-Gly-[dL]
- percent activation (calcium flux, GPCRProfiler), DT-110 @ 1.25 mM, Avg. (NPBW1 [3]): 0.2%
- percent activation (calcium flux, GPCRProfiler), DT-110 @ 1.25 mM, n1 (NPBW1 [3]): 1.6%
- percent activation (calcium flux, GPCRProfiler), DT-110 @ 1.25 mM, n2 (NPBW1 [3]): -1.1%
- percent activation (calcium flux, GPCRProfiler), DT-110 @ 12.5 mM, Avg. (NPBW1 [3]): -0.9%
- percent activation (calcium flux, GPCRProfiler), DT-110 @ 12.5 mM, n1 (NPBW1 [3]): -0.8%
- percent activation (calcium flux, GPCRProfiler), DT-110 @ 12.5 mM, n2 (NPBW1 [3]): -0.9%
